How the values were obtained:
cyclophilin D = cyclophilin D (Homo sapiens (Human), UniProt P30405); assay: Functional peptidyl prolyl isomerase (PPIase) spectrophotometric assay, cyclophilin D; type: biochemical; details: second value of CypA/D cell; read-out: Ki CypD
From the text: (§1) Cyclophilins are enzymes that catalyse the cis-trans isomerisation of peptide bonds to the amino acid proline. This event is important in many biological processes, including protein folding and signal transduction. […] The method to measure this activity and its inhibition is similar to that described by Jankowski (Analytical Biochemistry, 252, 2, 299-307 (1997)). The assay measures the cis to trans isomerisation of a peptide substrate catalysed by a PPlase enzyme using a UV/Vis spectrophotometer. This assay is a manual single cuvette-based assay. A first order rate equation is fitted to the absorbance data to obtain a rate constant. The catalytic rate is calculated from the enzymatic rate minus the background rate. The Ki (the concentration required to produce half maximum inhibition) for an inhibitor is obtained from the rate constant plotted against the inhibitor concentration. Typically, a 6-point dose response curve is obtained from duplicates and a Ki determined. Data are given in Table 5 as Ki [nM] for cyclophilins A and D, expressed in column 2 of Table 5 as Ki (cypA)/Ki (cypD).

[1] = system: permeabilised HepG2 cells; assay: Calcium retention capacity (CRC) assay in permeabilised HepG2 cells (MPTP opening); type: cell-based, human; parameters: CRC [10 μM]: unit not given here; details: compound at 10 μM; for CRC [10 μM]: digitonin permeabilised HepG2 cells; for CRC [10 μM] (ratio vs CsA): normalised to cyclosporin A, value in brackets
Method: The use of permeabilised cells means that inhibitory compounds that may not normally enter non-permeabilised cells are more likely to be active.
The calcium retention capacity (CRC) is a measure of the capability of mitochondria to retain calcium, primarily in the form of calcium phosphates, in the mitochondrial matrix.
In a CRC assay, the calcium indicator Calcium Green-5N (InVitrogen) is utilized. […] The assay is carried out in HepG2 (human hepatocellular carcinoma) cells which are digitonin permeabilized. Trains of calcium pulses (typically 5 μM additions) are added which results in a sudden increase in fluorescence which is then reduced by mitochondrial buffering. The cells will reach a point at which the calcium addition is no longer buffered, an indication that the MPTP has opened (mitochondrial permeability transition).
The experiment is performed with and without inhibitor. A compound that acts to inhibit the mitochondrial pore opening will result in a greater requirement for calcium to reach the transition point. The results are normalised to a positive control (cyclosporin A) in each experiment. The results are shown in column 3 of Table 5 as CRC [10 μM] (ratio vs CsA). The method of digitonin permeabilised whole cell CRC assay is similar to that used by Chiara et al. (PLoS One, March, 3, 3, e1852 (2008)).

SH-SY5Y cells = assay: Thapsigargin treated cell death assay in SH-SY5Y cells; type: cell-based, human; details: compound at 10 μM; positive = protection from cell death, negative = compound toxicity
From the text: Thapsigargin raises intracellular free calcium (Ca^2+) by potently inhibiting the endoplasmic reticulum Ca-ATPase, which sequesters Ca^2+ from the cytosol. The increased cytosolic Ca^2+ concentration is buffered by mitochondria by exchanging Ca^2+ for K, leading to depolarisation in the inner mitochondrial membrane and permeability transition.
The thapsigargin treated Jurkat cell death assay is a homogeneous 96 well plate based assay for cell death, instigated by the opening of the mitochondrial permeability transition pore (MPTP). The addition of thapsigargin to Jurkat cells results in an influx of calcium, the increase in intracellular calcium will initially be buffered by the mitochondria, but eventually the increasing calcium concentration will result in the opening of the MPTP, resulting in cell death.
CellTox™ Green is a dye which is unable to enter the cell until cell death leads to the loss of membrane integrity. Once this happens the CellTox™ Green enters the cell, binds to the cell's DNA and emits a fluorescent signal. […] Unless otherwise stated, the assay is typically run using a range of three compound concentrations of 1, 3 and 10 μM in triplicate and is read kinetically over a period of 24 hours. Compounds are added 30 minutes before the addition of thapsigargin. Compound only controls and positive control, cyclosporin A (CsA) (3 and 10 μM) are also included in the assay. Results are typically calculated at the 8 hour time point and the kinetic data is also reported.
The assay is carried out as described for the Jurkat cells but using the SH-SY5Y (human neuroblastoma) cell line instead of Jurkat cells. The results are shown in the fourth column of Table 5 (SY5Y [10 μM]% recovery). Positive numbers indicate protection from cell death, negative numbers indicate compound toxicity.

cyclophilin A = cyclophilin A (Homo sapiens (Human), UniProt P62937); assay: Functional peptidyl prolyl isomerase (PPIase) spectrophotometric assay, cyclophilin A; type: biochemical; details: first value of CypA/D cell
From the text: as §1

Sequence of cyclophilin A (P62937 whole entry, species assumed): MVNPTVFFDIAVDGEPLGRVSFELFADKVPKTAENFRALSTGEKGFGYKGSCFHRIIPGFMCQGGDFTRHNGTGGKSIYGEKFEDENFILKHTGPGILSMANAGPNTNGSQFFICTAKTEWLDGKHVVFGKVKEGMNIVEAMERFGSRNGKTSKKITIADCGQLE
Sequence of cyclophilin D (P30405 30-207, species assumed): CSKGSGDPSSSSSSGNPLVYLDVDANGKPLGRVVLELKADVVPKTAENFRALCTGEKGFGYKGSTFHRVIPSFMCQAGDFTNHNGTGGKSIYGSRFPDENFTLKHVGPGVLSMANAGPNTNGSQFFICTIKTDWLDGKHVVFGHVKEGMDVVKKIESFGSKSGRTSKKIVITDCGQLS

SMILES | Ki (cyclophilin D) [nM] | CRC [10 μM] [1] | CRC [10 μM] (ratio vs CsA) [1] | SYSY [10 μM] % recovery (SH-SY5Y cells) [%] | Ki (cyclophilin A) [nM]
C[C@@H]1NC(=O)[C@H](CN2CCNCC2)OC(=O)C(C)(C)/C=C/c2ccc3ccc(nc3c2)N(C)NC(=O)[C@@H]2CCCN(N2)C1=O [Compound (48)] | 11 | 10 | 0.5 | 46 | 26
CC(C)C(=O)Nc1cccc(C[C@@H]2OC(=O)C(C)(C)/C=C/c3ccc4ccc(nc4c3)N(C)NC(=O)[C@@H]3CCCN(N3)C(=O)[C@H](C)NC2=O)c1 [Compound (49)] | 14 | 20 | 1.00 | 40 | 22
C[C@@H]1NC(=O)[C@H](Cc2cccc(N)c2)OC(=O)C(C)(C)/C=C/c2ccc3ccc(nc3c2)N(C)NC(=O)[C@@H]2CCCN(N2)C1=O [Compound (50)] | 1.6 | 20 | 1.00 | 25 | 2.4
C[C@@H]1NC(=O)[C@H](CCl)OC(=O)C(C)(C)/C=C/c2ccc3ccc(nc3c2)N(C)NC(=O)[C@@H]2CCCN(N2)C1=O [Compound (53)] | 28 | 25 | 0.83 | 21 | 15
C[C@@H]1NC(=O)[C@H](CCC(N)=O)OC(=O)C(C)(C)/C=C/c2ccc3ccc(nc3c2)N(C)NC(=O)[C@@H]2CCCN(N2)C1=O [Compound (54)] | 700 | 15 | 0.50 | 10 | 36
C[C@@H]1NC(=O)[C@H](CCCN)OC(=O)C(C)(C)/C=C/c2ccc3ccc(nc3c2)N(C)NC(=O)[C@@H]2CCCN(N2)C1=O [Compound (55)] | 1900 | 5 | 0.25 | 37 | 110
C[C@@H]1NC(=O)[C@H](CC2CCCNC2)OC(=O)C(C)(C)/C=C/c2ccc3ccc(nc3c2)N(C)NC(=O)[C@@H]2CCCN(N2)C1=O (some centres unmarked) [Compound (56)] | 56.6 | 8 | 0.36 | 15 | 295
C[C@@H]1NC(=O)[C@H](C[C@@H]2CCCNC2)OC(=O)C(C)(C)/C=C/c2ccc3ccc(nc3c2)N(C)NC(=O)[C@@H]2CCCN(N2)C1=O [Compound (57)] | 7.6 | 15 | 0.75 | 48.48 | 7.8
COc1ccc(C[C@@H]2OC(=O)C(C)(C)/C=C/c3ccc4ccc(nc4c3)N(C)NC(=O)[C@@H]3CCCN(N3)C(=O)[C@H](C)NC2=O)cc1 [Compound (60)] | 9.5 | 25 | 0.80 | 37 | 1.3
CC(C)[C@@H]1OC(=O)C(C)(C)/C=C/c2ccc3ccc(nc3c2)N(C)NC(=O)[C@@H]2CCCN(N2)C(=O)[C@H](CCCCNCc2ccc3ccccc3c2)NC1=O [Compound (61)] | 4.25 | 20 | 0.78 | 35 | 1.85
